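Cells were grown in 96-well plates and exposed to each compound for 48 hours at five concentrations; endpoints were interpolated linearly between bracketing concentrations, or set to the highest concentration if not reached. TGI is the concentration that stops growth completely.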
Legend:
Test in all cases: DTP human tumour cell line panel, 48 h
HT29 colon = tested on: HT29 colon
SW-620 colon = tested on: SW-620 colon
HCC-2998 colon = tested on: HCC-2998 colon
A498 renal = tested on: A498 renal
SF-295 CNS = tested on: SF-295 CNS
M14 melanoma = tested on: M14 melanoma
MOLT-4 leukemia = tested on: MOLT-4 leukemia
TK-10 renal = tested on: TK-10 renal
NCI-H460 lung = tested on: NCI-H460 lung
SK-OV-3 ovarian = tested on: SK-OV-3 ovarian
SK-MEL-5 melanoma = tested on: SK-MEL-5 melanoma
IGROV1 ovarian = tested on: IGROV1 ovarian
SK-MEL-28 melanoma = tested on: SK-MEL-28 melanoma
HCT-15 colon = tested on: HCT-15 colon
UACC-257 melanoma = tested on: UACC-257 melanoma
RXF 393 renal = tested on: RXF 393 renal
LOX IMVI melanoma = tested on: LOX IMVI melanoma

CC(C)N(C(=O)C12C3C4C1C1C2C3C41I)C(C)C (centres undefined)
TGI (HT29 colon): > 100 µM | TGI (SW-620 colon): > 100 µM | TGI (HCC-2998 colon): > 100 µM | TGI (A498 renal): > 100 µM | TGI (SF-295 CNS): > 100 µM | TGI (M14 melanoma): > 100 µM | TGI (MOLT-4 leukemia): > 100 µM | TGI (TK-10 renal): > 100 µM | TGI (NCI-H460 lung): > 100 µM | TGI (SK-OV-3 ovarian): > 100 µM | TGI (SK-MEL-5 melanoma): > 100 µM | TGI (IGROV1 ovarian): > 100 µM | TGI (SK-MEL-28 melanoma): > 100 µM

Cc1nc(-n2nc(-c3ccccc3)cc2-c2ccccc2)sc1C(=O)/C=C/c1ccc(Cl)c(Cl)c1
TGI (SW-620 colon): 57.3 µM | TGI (HCT-15 colon): 39.9 µM | TGI (HCC-2998 colon): > 100 µM | TGI (SF-295 CNS): 35.7 µM | TGI (M14 melanoma): 40.5 µM | TGI (MOLT-4 leukemia): 52.5 µM | TGI (TK-10 renal): > 100 µM | TGI (NCI-H460 lung): > 100 µM | TGI (UACC-257 melanoma): > 100 µM | TGI (RXF 393 renal): > 100 µM | TGI (SK-OV-3 ovarian): > 100 µM | TGI (LOX IMVI melanoma): 27.5 µM | TGI (IGROV1 ovarian): 30 µM | TGI (SK-MEL-28 melanoma): > 100 µM

N#C/C(=C\c1cc(O)ccc1O)C(N)=O
TGI (HT29 colon): > 100 µM | TGI (SW-620 colon): > 100 µM | TGI (HCT-15 colon): > 100 µM | TGI (HCC-2998 colon): > 100 µM | TGI (A498 renal): > 100 µM | TGI (SF-295 CNS): > 100 µM | TGI (M14 melanoma): > 100 µM | TGI (MOLT-4 leukemia): 60.1 µM | TGI (TK-10 renal): > 100 µM | TGI (NCI-H460 lung): > 100 µM | TGI (UACC-257 melanoma): > 100 µM | TGI (RXF 393 renal): 86.6 µM | TGI (SK-OV-3 ovarian): > 100 µM | TGI (IGROV1 ovarian): > 100 µM | TGI (SK-MEL-28 melanoma): > 100 µM

C[C@@]1(Cc2ccccc2)C(=O)N2[C@@H](CO)C(c3ccccc3)O[C@]2(C)c2ccccc21 (some centres undefined)
TGI (SW-620 colon): > 100 µM | TGI (HCT-15 colon): > 100 µM | TGI (SF-295 CNS): > 100 µM | TGI (M14 melanoma): > 100 µM | TGI (MOLT-4 leukemia): > 100 µM | TGI (TK-10 renal): > 100 µM | TGI (RXF 393 renal): > 100 µM | TGI (SK-OV-3 ovarian): > 100 µM | TGI (LOX IMVI melanoma): > 100 µM | TGI (SK-MEL-5 melanoma): > 100 µM | TGI (IGROV1 ovarian): > 100 µM | TGI (SK-MEL-28 melanoma): > 100 µM

CCCCNC(=NCc1ccccc1)NC#N
TGI (HT29 colon): > 100 µM | TGI (SW-620 colon): > 100 µM | TGI (HCT-15 colon): > 100 µM | TGI (HCC-2998 colon): > 100 µM | TGI (A498 renal): > 100 µM | TGI (SF-295 CNS): > 100 µM | TGI (M14 melanoma): > 100 µM | TGI (MOLT-4 leukemia): > 100 µM | TGI (TK-10 renal): > 100 µM | TGI (NCI-H460 lung): > 100 µM | TGI (SK-OV-3 ovarian): > 100 µM | TGI (LOX IMVI melanoma): > 100 µM | TGI (SK-MEL-5 melanoma): > 100 µM | TGI (IGROV1 ovarian): > 100 µM | TGI (SK-MEL-28 melanoma): > 100 µM

COc1ccccc1-n1c(NN)nc2ccc(Br)cc2c1=O
TGI (HT29 colon): > 100 µM | TGI (SW-620 colon): > 100 µM | TGI (HCT-15 colon): > 100 µM | TGI (HCC-2998 colon): > 100 µM | TGI (SF-295 CNS): > 100 µM | TGI (M14 melanoma): > 100 µM | TGI (MOLT-4 leukemia): > 100 µM | TGI (TK-10 renal): 79.5 µM | TGI (NCI-H460 lung): > 100 µM | TGI (UACC-257 melanoma): 72.1 µM | TGI (RXF 393 renal): > 100 µM | TGI (SK-OV-3 ovarian): 99.3 µM | TGI (LOX IMVI melanoma): > 100 µM | TGI (SK-MEL-5 melanoma): 43 µM | TGI (IGROV1 ovarian): > 100 µM | TGI (SK-MEL-28 melanoma): > 100 µM

O=C(N/N=C(/c1nc2ccc([N+](=O)[O-])cc2[nH]c1=O)C(O)c1ccc([N+](=O)[O-])cc1)c1ccncc1 (centres undefined)
TGI (HT29 colon): > 100 µM | TGI (SW-620 colon): > 100 µM | TGI (HCT-15 colon): > 100 µM | TGI (HCC-2998 colon): > 100 µM | TGI (A498 renal): > 100 µM | TGI (SF-295 CNS): > 100 µM | TGI (M14 melanoma): > 100 µM | TGI (MOLT-4 leukemia): > 100 µM | TGI (TK-10 renal): > 100 µM | TGI (NCI-H460 lung): > 100 µM | TGI (UACC-257 melanoma): > 100 µM | TGI (SK-OV-3 ovarian): > 100 µM | TGI (LOX IMVI melanoma): > 100 µM | TGI (SK-MEL-5 melanoma): > 100 µM | TGI (IGROV1 ovarian): > 100 µM | TGI (SK-MEL-28 melanoma): > 100 µM

CCOC(=O)c1cnc2c(ccc3[nH]cccc32)c1=O
TGI (HT29 colon): > 100 µM | TGI (SW-620 colon): > 100 µM | TGI (HCT-15 colon): > 100 µM | TGI (HCC-2998 colon): > 100 µM | TGI (A498 renal): > 100 µM | TGI (M14 melanoma): > 100 µM | TGI (MOLT-4 leukemia): > 100 µM | TGI (TK-10 renal): > 100 µM | TGI (NCI-H460 lung): > 100 µM | TGI (UACC-257 melanoma): > 100 µM | TGI (RXF 393 renal): > 100 µM | TGI (SK-OV-3 ovarian): > 100 µM | TGI (LOX IMVI melanoma): > 100 µM | TGI (SK-MEL-5 melanoma): > 100 µM | TGI (IGROV1 ovarian): > 100 µM | TGI (SK-MEL-28 melanoma): > 100 µM

CC12C(=C(C#N)C(=N)N1c1ccc(Cl)c(Cl)c1)C=C(O)CC2SCCS(=O)(=O)O (centres undefined)
TGI (HT29 colon): > 100 µM | TGI (SW-620 colon): > 100 µM | TGI (HCT-15 colon): > 100 µM | TGI (HCC-2998 colon): > 100 µM | TGI (A498 renal): > 100 µM | TGI (SF-295 CNS): > 100 µM | TGI (MOLT-4 leukemia): > 100 µM | TGI (TK-10 renal): > 100 µM | TGI (UACC-257 melanoma): > 100 µM | TGI (RXF 393 renal): 94.7 µM | TGI (SK-OV-3 ovarian): > 100 µM | TGI (LOX IMVI melanoma): > 100 µM | TGI (SK-MEL-5 melanoma): > 100 µM | TGI (IGROV1 ovarian): > 100 µM | TGI (SK-MEL-28 melanoma): > 100 µM

CCOc1ccc(/C=C(\Cl)c2ccc(OC)cc2)cc1
TGI (HT29 colon): > 100 µM | TGI (SW-620 colon): > 100 µM | TGI (HCT-15 colon): > 100 µM | TGI (HCC-2998 colon): > 100 µM | TGI (A498 renal): > 100 µM | TGI (SF-295 CNS): > 100 µM | TGI (M14 melanoma): > 100 µM | TGI (MOLT-4 leukemia): > 100 µM | TGI (UACC-257 melanoma): > 100 µM | TGI (RXF 393 renal): > 100 µM | TGI (SK-OV-3 ovarian): > 100 µM | TGI (SK-MEL-5 melanoma): > 100 µM | TGI (IGROV1 ovarian): > 100 µM | TGI (SK-MEL-28 melanoma): > 100 µM

C/C(=N/NC(=O)C[n+]1ccccc1)C(CN(CC(C)C)CC(C)C)C(=O)Nc1ccc(C)cc1C (centres undefined)
TGI (HT29 colon): > 100 µM | TGI (SW-620 colon): > 100 µM | TGI (HCC-2998 colon): > 100 µM | TGI (A498 renal): 92.9 µM | TGI (M14 melanoma): > 100 µM | TGI (MOLT-4 leukemia): > 100 µM | TGI (TK-10 renal): > 100 µM | TGI (NCI-H460 lung): > 100 µM | TGI (UACC-257 melanoma): > 100 µM | TGI (RXF 393 renal): > 100 µM | TGI (SK-OV-3 ovarian): > 100 µM | TGI (SK-MEL-5 melanoma): > 100 µM | TGI (IGROV1 ovarian): > 100 µM | TGI (SK-MEL-28 melanoma): > 100 µM

CC/C(=N/O)c1ccc2[nH]c3c(C)cc([N+](=O)[O-])c(C)c3c2c1
TGI (HT29 colon): > 100 µM | TGI (SW-620 colon): > 100 µM | TGI (HCT-15 colon): > 100 µM | TGI (HCC-2998 colon): > 100 µM | TGI (SF-295 CNS): > 100 µM | TGI (M14 melanoma): > 100 µM | TGI (MOLT-4 leukemia): > 100 µM | TGI (TK-10 renal): > 100 µM | TGI (NCI-H460 lung): > 100 µM | TGI (UACC-257 melanoma): > 100 µM | TGI (LOX IMVI melanoma): > 100 µM | TGI (SK-MEL-5 melanoma): > 100 µM | TGI (SK-MEL-28 melanoma): > 100 µM

CC1(C)OCN(c2ccc(S(N)(=O)=O)cc2)Cn2c1nc1ccccc12
TGI (HT29 colon): > 100 µM | TGI (SW-620 colon): > 100 µM | TGI (HCT-15 colon): > 100 µM | TGI (HCC-2998 colon): > 100 µM | TGI (A498 renal): > 100 µM | TGI (SF-295 CNS): > 100 µM | TGI (M14 melanoma): > 100 µM | TGI (MOLT-4 leukemia): > 100 µM | TGI (TK-10 renal): > 100 µM | TGI (NCI-H460 lung): > 100 µM | TGI (UACC-257 melanoma): > 100 µM | TGI (RXF 393 renal): > 100 µM | TGI (SK-OV-3 ovarian): > 100 µM | TGI (LOX IMVI melanoma): > 100 µM | TGI (IGROV1 ovarian): > 100 µM | TGI (SK-MEL-28 melanoma): > 100 µM
